From patent publication US8642629B2, “Naphthylacetic acids” (Hoffmann-La Roche Inc., priority 2008, dated 2014)

How the values were obtained:
human CRTH2 [1] = biological target: T1, human CRTH2 (Homo sapiens, UniProt Q9Y5Y4); experiment: Calcium Flux Assay Using Fluorometric Imaging Plate Reader (FLIPR); format: cell-based; conditions: CHO-K1 cells transfected with G-alpha 16 and human CRTH2; inhibition of ligand (DK-PGD2) response
T1 construct: expressed in transfected cells; host or cells: CHO-K1
T1 sequence (Q9Y5Y4 1-395): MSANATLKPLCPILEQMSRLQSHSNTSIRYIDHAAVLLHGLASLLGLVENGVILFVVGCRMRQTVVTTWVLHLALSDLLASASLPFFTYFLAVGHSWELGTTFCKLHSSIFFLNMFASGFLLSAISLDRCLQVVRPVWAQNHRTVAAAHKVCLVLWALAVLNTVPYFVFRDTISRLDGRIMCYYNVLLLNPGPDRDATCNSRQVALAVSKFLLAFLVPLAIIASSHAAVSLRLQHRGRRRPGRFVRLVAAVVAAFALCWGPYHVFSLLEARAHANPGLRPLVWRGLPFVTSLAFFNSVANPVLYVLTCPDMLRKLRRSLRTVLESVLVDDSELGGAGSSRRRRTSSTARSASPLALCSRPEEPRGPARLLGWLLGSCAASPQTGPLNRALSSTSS
Method: CHO-K1 cells previously transfected with G-alpha 16 were subsequently transfected with the human CRTH2 receptor and the neomycin resistance gene. Following selection in 800 μg/mL G418 (geneticin), individual clones were assayed for their receptor expression based on staining with an anti human CRTH2 IgG, followed by assaying for their response to 13,14-dihydro-15-keto Prostaglandin D2 (DK-PDG2) (ligand) in the Ca^2+ Flux assay. Positive clones were then cloned by limiting dilution cloning. […] Cells were harvested with trypsin-EDTA (trypsin-ethylenediaminetetraacetic acid) and counted using ViaCount® reagent (from Guava Technologies, Inc. which contains two DNA-binding dyes that enable the reagent user to distinguish between viable and non-viable cells). […]
After incubation, both the cell and “assay plate” plates were brought to the fluorometric imaging plate reader (FLIPR®) and 20 μL of the diluted compounds were transferred to the cell plates by the FLIPR®. […] During the assay, fluorescence readings were taken simultaneously from all 384 wells of the cell plate every 1.5 seconds. Five readings were taken to establish a stable baseline, then 20 μL of sample was rapidly (30 μL/sec) and simultaneously added to each well of the cell plate. The fluorescence was continuously monitored before, during and after sample addition for a total elapsed time of 100 seconds. […]

human CRTH2 [2] = biological target: T1, human CRTH2; experiment: Human CRTH2 Receptor Binding Assay (whole cell, [3H]ramatroban competition); conditions: CHO-K1 cells expressing human CRTH2 and G-alpha16; 20 nM [3H]ramatroban; 1 hour, room temperature
Summary of the method: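 Whole CHO-K1 cells stably expressing human CRTH2 and G-alpha16 were incubated with 20 nM [3H]ramatroban and compound for 1 h at room temperature in PBS with 10 mM MgCl2 and 0.06% BSA, then filtered and counted. Non-specific binding was defined with 10 μM 15(R)-15-methyl PGD2, and IC50 was fitted by 4-parameter logistic from 7 concentrations.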

| SMILES | IC50 (human CRTH2 [1]) [nM] | IC50 (human CRTH2 [2]) [nM] |
| --- | --- | --- |
| CCS(=O)(=O)c1ccc(Oc2cc(CC(=O)O)cc3ccc(F)cc23)cc1 [Example 1-1, [4-(4-ethanesulfonyl-phenoxy)-6-fluoro-naphthalen-2-yl]-acetic acid] | 5000 | 2.3 |
| CCS(=O)(=O)c1ccc(Oc2c(C)c(CCC(=O)O)cc3ccc(F)cc23)cc1 [Example 7-1, 3-[4-(4-ethanesulfonyl-phenoxy)-6-fluoro-3-methyl-naphthalen-2-yl]-propionic acid] | 4200 | 130 |
| CCS(=O)(=O)c1ccc(Oc2cc(CC(=O)O)cc3ccc(S(C)(=O)=O)cc23)cc1 [Example 16-1, [4-(4-Ethanesulfonyl-phenoxy)-6-methanesulfonyl-naphthalen-2-yl]-acetic acid] |  | 91.5 |
